ChEMBL document CHEMBL4304811, “Development of a Water-Soluble Indolylmaleimide Derivative IM-93 Showing Dual Inhibition of Ferroptosis and NETosis” (ACS Med Chem Lett, 2019)
Active and inactive are the calls of the source. No cut-off for these calls is given here.

How the values were obtained:
[1] = biological target: Activin receptor type-2B (Homo sapiens) (UniProt Q13705); experiment: Binding affinity to wild-type human ACVR2B (H169 to D504 residues) expressed in bacterial expression system assessed as residual binding level at 10 uM by Kinomescan method relative to control
[2] = biological target: Activated CDC42 kinase 1 (Homo sapiens) (UniProt Q07912); experiment: Binding affinity to wild-type human partial length TNK2 (S159 to D474 residues) expressed in bacterial expression system assessed as residual binding level at 10 uM by Kinomescan method relative to control
[3] = biological target: Serine/threonine-protein kinase Nek11 (Homo sapiens) (UniProt Q8NG66); experiment: Binding affinity to wild-type human partial length NEK11 (M1 to E313 residues) expressed in mammalian expression system assessed as residual binding level at 10 uM by Kinomescan method relative to control
HL-60 = experiment: Cytoprotection against human HL60 cells assessed as inhibition of H2O2-induced cell death pretreated for 1 hr followed by H2O2 stimulation measured after 3 hrs by p-iodonitrotetrazolium violet dye based LDH assay; format: functional
[4] = biological target: Serine/threonine-protein kinase ULK3 (Homo sapiens) (UniProt Q6PHR2); experiment: Binding affinity to wild-type human partial length ULK3 (M1 to Q290 residues) expressed in mammalian expression system assessed as residual binding level at 10 uM by Kinomescan method relative to control
[5] = biological target: Serine/threonine-protein kinase PAK 4 (Homo sapiens) (UniProt O96013); experiment: Binding affinity to wild-type human partial length PAK4 (Q144 to R438 residues) expressed in bacterial expression system assessed as residual binding level at 10 uM by Kinomescan method relative to control
[6] = biological target: Non-receptor tyrosine-protein kinase TYK2 (Homo sapiens) (UniProt P29597); experiment: Binding affinity to wild-type human partial length TYK2 JH1 catalytic domain (V877 to C1187 residues) expressed in mammalian expression system assessed as residual binding level at 10 uM by Kinomescan method relative to control
[7] = test system: Phosphatidylinositol 4,5-bisphosphate 3-kinase catalytic subunit alpha isoform (Homo sapiens), P42336 [C420R]; experiment: Binding affinity to human partial length PIK3CA C420R mutant (R108 to N1068 residues) expressed in mammalian expression system assessed as residual binding level at 10 uM by Kinomescan method relative to control
[8] = biological target: Serine/threonine-protein kinase 4 (Homo sapiens) (UniProt Q13043); experiment: Binding affinity to wild-type human full length MST1 (M1 to F487 residues) expressed in bacterial expression system assessed as residual binding level at 10 uM by Kinomescan method relative to control
[9] = biological target: MAP/microtubule affinity-regulating kinase 4 (Homo sapiens) (UniProt Q96L34); experiment: Binding affinity to wild-type human partial length MARK4 (K29 to G340 residues) expressed in bacterial expression system assessed as residual binding level at 10 uM by Kinomescan method relative to control
[10] = test system: Phosphatidylinositol 4,5-bisphosphate 3-kinase catalytic subunit alpha isoform (Homo sapiens), P42336 [M1043I]; experiment: Binding affinity to human partial length PIK3CA M1043I mutant (R108 to N1068 residues) expressed in mammalian expression system assessed as residual binding level at 10 uM by Kinomescan method relative to control
[11] = biological target: Phosphatidylinositol 4-phosphate 3-kinase C2 domain-containing subunit beta (Homo sapiens) (UniProt O00750); experiment: Binding affinity to wild-type human partial length PIK3C2B (M1 to L1634 residues) expressed in mammalian expression system assessed as residual binding level at 10 uM by Kinomescan method relative to control
[12] = biological target: Proto-oncogene tyrosine-protein kinase ROS (Homo sapiens) (UniProt P08922); experiment: Binding affinity to wild-type human partial length ROS1 (A1921 to N2240 residues) expressed in bacterial expression system assessed as residual binding level at 10 uM by Kinomescan method relative to control
[13] = biological target: Cyclin-dependent kinase 8 (Homo sapiens) (UniProt P49336); experiment: Binding affinity to wild-type human partial length CDK8 (M1 to T360 residues) expressed in bacterial expression system assessed as residual binding level at 10 uM by Kinomescan method relative to control
[14] = biological target: Serine/threonine-protein kinase 17B (Homo sapiens) (UniProt O94768); experiment: Binding affinity to wild-type human full length DRAK2 (M1 to C372 residues) expressed in bacterial expression system assessed as residual binding level at 10 uM by Kinomescan method relative to control
[15] = test system: Receptor-type tyrosine-protein kinase FLT3 (Homo sapiens), P36888 [D835H]; experiment: Binding affinity to human partial length FLT3 D835H mutant (V592 to Y969 residues) expressed in bacterial expression system assessed as residual binding level at 10 uM by Kinomescan method relative to control
[16] = biological target: TGF-beta receptor type-1 (Homo sapiens) (UniProt P36897); experiment: Binding affinity to wild-type human partial length TGFBR1 (D179 to M503 residues) expressed in bacterial expression system assessed as residual binding level at 10 uM by Kinomescan method relative to control
[17] = biological target: Dual specificity mitogen-activated protein kinase kinase 5 (Homo sapiens) (UniProt Q13163); experiment: Binding affinity to wild-type human partial length MEK5 (L98 to P448 residues) expressed in mammalian expression system assessed as residual binding level at 10 uM by Kinomescan method relative to control
[18] = biological target: Calcium-dependent protein kinase 1 (Plasmodium falciparum) (UniProt P62344); experiment: Binding affinity to wild-type Plasmodium falciparum full length CDPK1 (M1 to S524 residues) expressed in mammalian expression system assessed as residual binding level at 10 uM by Kinomescan method relative to control
[19] = biological target: Platelet-derived growth factor receptor beta (Homo sapiens) (UniProt P09619); experiment: Binding affinity to wild-type human partial length PDGFRB (V582 to Y1009 residues) expressed in bacterial expression system assessed as residual binding level at 10 uM by Kinomescan method relative to control
[20] = biological target: Ephrin type-A receptor 1 (Homo sapiens) (UniProt P21709); experiment: Binding affinity to wild-type human partial length EPHA1 (V588 to I913 residues) expressed in bacterial expression system assessed as residual binding level at 10 uM by Kinomescan method relative to control
Neutrophil = experiment: Inhibition of PMA-induced superoxide production in C57BL6 mouse neutrophils at 10 uM preincubated for 30 mins followed by PMA stimulation and measured after 30 mins by luminol-lucignenin based luminescence assay; format: functional, cell-based
[21] = test system: Phosphatidylinositol 4,5-bisphosphate 3-kinase catalytic subunit alpha isoform (Homo sapiens), P42336 [E542K]; experiment: Binding affinity to human partial length PIK3CA E542K mutant (R108 to N1068 residues) expressed in mammalian expression system assessed as residual binding level at 10 uM by Kinomescan method relative to control
[22] = biological target: Serine/threonine-protein kinase 10 (Homo sapiens) (UniProt O94804); experiment: Binding affinity to wild-type human partial length LOK (E16 to V314 residues) expressed in bacterial expression system assessed as residual binding level at 10 uM by Kinomescan method relative to control

Chain of Serine/threonine-protein kinase 17B (Homo sapiens) (O94768 whole entry, the tested form may be a part): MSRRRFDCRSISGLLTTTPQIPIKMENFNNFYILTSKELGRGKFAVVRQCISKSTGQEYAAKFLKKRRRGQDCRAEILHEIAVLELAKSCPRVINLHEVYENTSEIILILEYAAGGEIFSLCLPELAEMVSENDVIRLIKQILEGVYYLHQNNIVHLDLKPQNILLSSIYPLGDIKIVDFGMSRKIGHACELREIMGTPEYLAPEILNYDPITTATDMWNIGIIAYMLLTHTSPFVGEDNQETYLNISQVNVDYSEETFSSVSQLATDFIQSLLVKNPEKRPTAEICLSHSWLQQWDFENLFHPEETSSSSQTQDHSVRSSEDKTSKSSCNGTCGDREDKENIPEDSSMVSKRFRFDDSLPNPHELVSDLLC
Chain of Calcium-dependent protein kinase 1 (Plasmodium falciparum) (P62344 2-524 limits assumed): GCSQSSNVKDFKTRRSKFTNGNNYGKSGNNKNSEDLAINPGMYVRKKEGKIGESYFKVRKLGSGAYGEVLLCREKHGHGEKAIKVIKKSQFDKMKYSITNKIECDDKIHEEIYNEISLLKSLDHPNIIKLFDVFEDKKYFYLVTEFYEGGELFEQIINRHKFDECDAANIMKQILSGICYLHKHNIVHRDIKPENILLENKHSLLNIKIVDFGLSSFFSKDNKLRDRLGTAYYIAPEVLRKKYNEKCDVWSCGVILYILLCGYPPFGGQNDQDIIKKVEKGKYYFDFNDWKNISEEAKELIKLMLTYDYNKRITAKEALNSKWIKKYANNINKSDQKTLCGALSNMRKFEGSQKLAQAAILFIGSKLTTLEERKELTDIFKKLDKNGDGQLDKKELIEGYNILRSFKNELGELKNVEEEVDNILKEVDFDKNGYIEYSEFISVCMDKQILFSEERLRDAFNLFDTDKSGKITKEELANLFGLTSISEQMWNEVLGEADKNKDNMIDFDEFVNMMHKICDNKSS
Chain of Serine/threonine-protein kinase Nek11 (Homo sapiens) (Q8NG66 whole entry, the tested form may be a part): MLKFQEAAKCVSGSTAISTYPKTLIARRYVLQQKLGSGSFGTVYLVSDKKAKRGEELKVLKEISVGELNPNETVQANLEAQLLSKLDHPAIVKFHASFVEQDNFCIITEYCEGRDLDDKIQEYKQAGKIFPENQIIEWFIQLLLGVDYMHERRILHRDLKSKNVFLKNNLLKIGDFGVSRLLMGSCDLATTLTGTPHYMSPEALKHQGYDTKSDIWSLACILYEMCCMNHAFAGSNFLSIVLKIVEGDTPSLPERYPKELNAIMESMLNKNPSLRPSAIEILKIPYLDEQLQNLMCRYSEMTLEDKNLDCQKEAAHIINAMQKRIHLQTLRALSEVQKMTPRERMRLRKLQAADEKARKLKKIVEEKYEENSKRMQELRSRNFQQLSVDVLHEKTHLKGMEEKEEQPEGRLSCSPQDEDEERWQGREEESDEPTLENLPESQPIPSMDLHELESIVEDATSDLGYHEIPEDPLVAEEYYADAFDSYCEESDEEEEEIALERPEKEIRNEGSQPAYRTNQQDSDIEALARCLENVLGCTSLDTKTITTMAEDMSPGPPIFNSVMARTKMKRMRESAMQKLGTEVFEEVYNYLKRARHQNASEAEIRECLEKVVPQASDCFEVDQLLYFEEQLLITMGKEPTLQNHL
Chain of TGF-beta receptor type-1 (Homo sapiens) (P36897 whole entry, the tested form may be a part): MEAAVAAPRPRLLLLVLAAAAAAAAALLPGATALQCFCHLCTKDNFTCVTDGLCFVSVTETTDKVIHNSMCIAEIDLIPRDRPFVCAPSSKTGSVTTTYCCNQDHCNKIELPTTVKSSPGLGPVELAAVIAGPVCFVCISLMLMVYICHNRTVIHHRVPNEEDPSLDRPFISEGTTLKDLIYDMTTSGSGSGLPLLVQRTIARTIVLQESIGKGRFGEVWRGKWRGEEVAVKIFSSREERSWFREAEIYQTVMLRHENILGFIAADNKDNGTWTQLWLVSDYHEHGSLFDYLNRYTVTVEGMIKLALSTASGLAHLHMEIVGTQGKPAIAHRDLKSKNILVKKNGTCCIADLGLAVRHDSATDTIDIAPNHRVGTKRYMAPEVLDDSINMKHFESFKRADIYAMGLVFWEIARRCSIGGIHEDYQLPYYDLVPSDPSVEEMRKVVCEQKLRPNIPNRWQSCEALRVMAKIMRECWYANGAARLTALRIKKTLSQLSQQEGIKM
Chain of Serine/threonine-protein kinase PAK 4 (Homo sapiens) (O96013 whole entry, looked up, the tested form may be a part): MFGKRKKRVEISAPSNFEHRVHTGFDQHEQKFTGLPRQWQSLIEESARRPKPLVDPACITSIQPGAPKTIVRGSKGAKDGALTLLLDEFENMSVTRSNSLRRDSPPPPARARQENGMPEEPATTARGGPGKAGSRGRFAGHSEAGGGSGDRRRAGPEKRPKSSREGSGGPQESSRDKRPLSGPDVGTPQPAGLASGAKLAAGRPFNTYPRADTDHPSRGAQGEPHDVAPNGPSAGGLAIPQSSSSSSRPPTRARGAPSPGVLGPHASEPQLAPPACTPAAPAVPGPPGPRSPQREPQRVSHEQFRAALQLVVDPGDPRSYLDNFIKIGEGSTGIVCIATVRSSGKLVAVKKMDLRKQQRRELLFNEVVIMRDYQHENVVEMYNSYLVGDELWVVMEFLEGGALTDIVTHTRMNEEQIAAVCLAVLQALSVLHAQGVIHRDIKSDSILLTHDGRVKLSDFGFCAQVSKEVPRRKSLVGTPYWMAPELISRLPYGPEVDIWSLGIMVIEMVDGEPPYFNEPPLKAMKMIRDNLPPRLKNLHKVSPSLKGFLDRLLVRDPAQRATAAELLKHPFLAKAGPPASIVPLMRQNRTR
Chain of Platelet-derived growth factor receptor beta (Homo sapiens) (P09619 whole entry, the tested form may be a part): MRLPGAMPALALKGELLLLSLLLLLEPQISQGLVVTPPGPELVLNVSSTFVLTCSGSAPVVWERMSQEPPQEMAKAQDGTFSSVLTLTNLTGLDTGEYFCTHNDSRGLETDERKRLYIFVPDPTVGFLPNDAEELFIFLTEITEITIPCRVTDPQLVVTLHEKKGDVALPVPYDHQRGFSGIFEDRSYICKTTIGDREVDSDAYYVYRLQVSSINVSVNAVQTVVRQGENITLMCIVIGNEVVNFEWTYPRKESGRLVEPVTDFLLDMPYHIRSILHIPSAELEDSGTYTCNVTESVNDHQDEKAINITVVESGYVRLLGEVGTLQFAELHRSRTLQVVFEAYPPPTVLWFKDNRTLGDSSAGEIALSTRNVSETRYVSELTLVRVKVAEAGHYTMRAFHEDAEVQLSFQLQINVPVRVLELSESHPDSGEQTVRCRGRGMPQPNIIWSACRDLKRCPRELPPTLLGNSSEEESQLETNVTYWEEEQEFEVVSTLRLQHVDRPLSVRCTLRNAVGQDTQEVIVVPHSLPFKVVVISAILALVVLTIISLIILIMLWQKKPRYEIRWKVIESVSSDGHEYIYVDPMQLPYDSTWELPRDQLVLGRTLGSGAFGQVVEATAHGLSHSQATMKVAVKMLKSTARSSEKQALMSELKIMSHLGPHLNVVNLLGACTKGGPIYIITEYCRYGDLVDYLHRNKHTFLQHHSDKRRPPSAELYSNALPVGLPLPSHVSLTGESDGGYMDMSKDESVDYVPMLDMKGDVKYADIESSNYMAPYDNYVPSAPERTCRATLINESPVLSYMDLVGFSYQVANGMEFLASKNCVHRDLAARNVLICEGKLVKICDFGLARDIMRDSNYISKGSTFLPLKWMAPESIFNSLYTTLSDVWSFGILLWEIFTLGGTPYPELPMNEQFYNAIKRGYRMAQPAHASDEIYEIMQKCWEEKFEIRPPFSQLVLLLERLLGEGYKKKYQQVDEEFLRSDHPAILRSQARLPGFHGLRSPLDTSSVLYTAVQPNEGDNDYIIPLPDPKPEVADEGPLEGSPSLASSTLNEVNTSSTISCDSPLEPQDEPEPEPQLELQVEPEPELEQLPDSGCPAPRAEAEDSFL
Chain of Phosphatidylinositol 4,5-bisphosphate 3-kinase catalytic subunit alpha isoform (Homo sapiens), P42336 [E542K] (P42336 whole entry E542K, the tested form may be a part, canonical isoform): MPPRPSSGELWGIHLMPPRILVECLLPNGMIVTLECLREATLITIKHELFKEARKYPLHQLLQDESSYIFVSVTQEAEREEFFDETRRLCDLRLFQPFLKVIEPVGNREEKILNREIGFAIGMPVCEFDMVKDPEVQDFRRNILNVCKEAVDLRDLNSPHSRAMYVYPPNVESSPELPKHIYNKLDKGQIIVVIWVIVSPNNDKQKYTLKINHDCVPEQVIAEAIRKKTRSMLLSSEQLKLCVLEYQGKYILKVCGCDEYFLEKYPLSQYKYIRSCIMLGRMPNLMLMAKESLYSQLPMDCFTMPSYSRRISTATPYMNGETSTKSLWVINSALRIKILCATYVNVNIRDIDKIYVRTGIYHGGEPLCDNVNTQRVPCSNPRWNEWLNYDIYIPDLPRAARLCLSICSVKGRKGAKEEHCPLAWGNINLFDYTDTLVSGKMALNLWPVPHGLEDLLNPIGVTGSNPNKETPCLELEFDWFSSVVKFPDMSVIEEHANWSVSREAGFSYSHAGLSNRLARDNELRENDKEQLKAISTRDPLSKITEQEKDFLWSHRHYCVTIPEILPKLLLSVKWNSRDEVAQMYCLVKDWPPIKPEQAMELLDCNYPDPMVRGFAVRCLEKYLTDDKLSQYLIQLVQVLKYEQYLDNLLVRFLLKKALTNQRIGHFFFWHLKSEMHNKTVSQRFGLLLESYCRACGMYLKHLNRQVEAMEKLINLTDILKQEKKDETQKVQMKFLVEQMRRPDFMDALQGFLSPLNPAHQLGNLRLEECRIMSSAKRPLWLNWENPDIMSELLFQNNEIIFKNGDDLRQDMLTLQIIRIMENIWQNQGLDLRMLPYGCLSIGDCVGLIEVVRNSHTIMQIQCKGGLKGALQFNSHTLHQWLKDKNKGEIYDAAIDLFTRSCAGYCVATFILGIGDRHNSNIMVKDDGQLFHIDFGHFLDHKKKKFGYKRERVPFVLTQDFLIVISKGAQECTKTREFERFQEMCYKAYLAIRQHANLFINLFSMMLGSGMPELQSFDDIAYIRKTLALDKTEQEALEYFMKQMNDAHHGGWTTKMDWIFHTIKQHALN

CC(C)N1C(=O)C(NCCCN(C)C)=C(c2cn(C)c3ccccc23)C1=O.Cl
Activity [1]: 96%
Activity [2]: 100%
Activity [3]: 100%
IC50 (HL-60): 450 nM
Activity [4]: 79%
Activity [5]: 89%
Activity [6]: 82%
Activity [7]: 75%
Activity [8]: 93%
Activity [9]: 64%
Activity [10]: 67%
Activity [11]: 81%
Activity [12]: 87%
Activity [13]: 100%
Activity [14]: 91%
Activity [15]: 88%
Activity [16]: 100%
Activity [17]: 77%
Activity [18]: 81%
Activity [19]: 99%
Activity [20]: 85%
inhibition (Neutrophil): inactive
Activity [21]: 87%
Activity [22]: 88%
